Measured values: ChEMBL document CHEMBL1146858 (Bioorg Med Chem Lett, 2006)

How the values were obtained:
[1] = target: Coagulation factor VII/tissue factor (Homo sapiens) (UniProt P08709+P13726); experiment: Anticoagulant activity in plasma by PT assay; assay type: functional, cell-free
[2] = species on record: Oryctolagus cuniculus
[3] = Apparent permeability in Caco-2 cells; assay type: ADME, cell-based; details: human
[4] = Oral bioavailability in orally dosed dog; assay type: ADME, organism-based, Canis lupus familiaris; details: in vivo
[5] = Volume of distribution in dog; assay type: ADME, organism-based, Canis lupus familiaris; details: in vivo, read-out: Vdss
[6] = target: Coagulation factor X (Homo sapiens, UniProt P00742); experiment: Binding affinity to human F10a
Sequence of Coagulation factor X (P00742 41-179 limits assumed): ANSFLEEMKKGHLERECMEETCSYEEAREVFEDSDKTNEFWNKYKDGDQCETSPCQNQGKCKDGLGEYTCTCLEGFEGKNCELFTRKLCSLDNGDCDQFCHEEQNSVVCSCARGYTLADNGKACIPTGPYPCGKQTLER
Sequence of Coagulation factor X (P00742 235-488 limits assumed): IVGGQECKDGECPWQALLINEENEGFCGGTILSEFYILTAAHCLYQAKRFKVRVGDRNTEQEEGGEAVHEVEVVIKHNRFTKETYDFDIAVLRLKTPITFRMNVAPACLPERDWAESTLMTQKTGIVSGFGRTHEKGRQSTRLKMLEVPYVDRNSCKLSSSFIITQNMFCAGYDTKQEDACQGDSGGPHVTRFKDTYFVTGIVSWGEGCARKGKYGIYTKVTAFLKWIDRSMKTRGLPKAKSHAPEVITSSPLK

[7] = Half life in orally dosed dog; assay type: ADME, organism-based, Canis lupus familiaris; details: in vivo, po
[8] = target: Prothrombin (Homo sapiens, UniProt P00734); experiment: Binding affinity to human F2a
[9] = Clearance in dog; assay type: ADME, organism-based, Canis lupus familiaris; details: in vivo
[10] = target: Trypsin (Homo sapiens, UniProt P07477+P07478+P35030); experiment: Binding affinity to human trypsin; assay type: protein assay
[11] = target: Coagulation factor IX (Homo sapiens, UniProt P00740); experiment: Binding affinity to human f9a
Sequence of Coagulation factor IX (P00740 47-191 limits assumed): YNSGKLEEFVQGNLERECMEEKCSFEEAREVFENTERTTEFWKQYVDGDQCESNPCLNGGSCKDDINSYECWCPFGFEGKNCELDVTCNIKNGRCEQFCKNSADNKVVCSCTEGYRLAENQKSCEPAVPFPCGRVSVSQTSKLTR
Sequence of Coagulation factor IX (P00740 227-461 limits assumed): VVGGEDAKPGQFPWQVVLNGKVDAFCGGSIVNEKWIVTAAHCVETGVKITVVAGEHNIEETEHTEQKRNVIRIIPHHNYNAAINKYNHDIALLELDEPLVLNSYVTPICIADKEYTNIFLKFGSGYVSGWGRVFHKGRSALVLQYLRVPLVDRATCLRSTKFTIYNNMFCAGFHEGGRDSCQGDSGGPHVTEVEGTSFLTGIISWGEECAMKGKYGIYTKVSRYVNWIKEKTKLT

[12] = target: Chymotrypsinogen B (Homo sapiens, UniProt P17538); experiment: Binding affinity to human chymotrypsin
Sequence of Chymotrypsinogen B (P17538 34-164 limits assumed, other chains not shown): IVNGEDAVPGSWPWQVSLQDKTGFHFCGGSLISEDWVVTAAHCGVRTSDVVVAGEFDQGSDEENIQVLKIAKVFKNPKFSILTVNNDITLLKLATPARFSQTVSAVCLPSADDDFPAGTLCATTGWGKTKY
Sequence of Chymotrypsinogen B (P17538 167-263 limits assumed, other chains not shown): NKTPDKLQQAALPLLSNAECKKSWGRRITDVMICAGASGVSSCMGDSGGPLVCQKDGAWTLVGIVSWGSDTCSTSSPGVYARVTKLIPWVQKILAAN

[13] = target: Tissue-type plasminogen activator (Homo sapiens, UniProt P00750); experiment: Binding affinity to human tPA
Sequence of Tissue-type plasminogen activator (P00750 whole entry): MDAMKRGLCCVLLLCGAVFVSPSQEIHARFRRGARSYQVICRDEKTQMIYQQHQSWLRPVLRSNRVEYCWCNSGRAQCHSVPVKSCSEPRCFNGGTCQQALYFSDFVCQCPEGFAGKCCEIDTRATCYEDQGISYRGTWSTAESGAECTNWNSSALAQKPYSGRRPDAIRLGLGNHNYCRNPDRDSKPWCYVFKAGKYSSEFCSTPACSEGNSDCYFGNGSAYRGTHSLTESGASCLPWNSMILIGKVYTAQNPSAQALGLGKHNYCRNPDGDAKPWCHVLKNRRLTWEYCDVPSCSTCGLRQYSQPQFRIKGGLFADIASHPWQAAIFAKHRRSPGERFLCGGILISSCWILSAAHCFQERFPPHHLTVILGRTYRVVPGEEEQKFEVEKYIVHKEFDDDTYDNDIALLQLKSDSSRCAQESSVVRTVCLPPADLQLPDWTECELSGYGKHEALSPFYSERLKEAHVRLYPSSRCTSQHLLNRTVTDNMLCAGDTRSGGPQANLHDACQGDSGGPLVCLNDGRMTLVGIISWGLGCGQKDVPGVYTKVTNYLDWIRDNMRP

[14] = target: Plasminogen (Homo sapiens, UniProt P00747); experiment: Binding affinity to human plasmin
Sequence of Plasminogen (P00747 97-580 limits assumed): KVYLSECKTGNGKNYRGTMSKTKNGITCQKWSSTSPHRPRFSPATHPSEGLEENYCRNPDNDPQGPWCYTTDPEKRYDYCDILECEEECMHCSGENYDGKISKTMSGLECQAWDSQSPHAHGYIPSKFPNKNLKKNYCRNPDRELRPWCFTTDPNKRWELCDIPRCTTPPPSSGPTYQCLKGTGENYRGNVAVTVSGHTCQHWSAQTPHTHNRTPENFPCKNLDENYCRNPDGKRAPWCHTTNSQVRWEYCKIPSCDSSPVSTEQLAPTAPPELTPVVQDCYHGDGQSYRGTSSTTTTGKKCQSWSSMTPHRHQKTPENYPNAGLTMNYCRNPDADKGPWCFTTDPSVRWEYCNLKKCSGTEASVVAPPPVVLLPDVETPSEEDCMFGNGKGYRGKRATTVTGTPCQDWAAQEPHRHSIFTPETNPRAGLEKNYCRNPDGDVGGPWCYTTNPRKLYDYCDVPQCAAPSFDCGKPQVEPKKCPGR
Sequence of Plasminogen (P00747 581-810 limits assumed): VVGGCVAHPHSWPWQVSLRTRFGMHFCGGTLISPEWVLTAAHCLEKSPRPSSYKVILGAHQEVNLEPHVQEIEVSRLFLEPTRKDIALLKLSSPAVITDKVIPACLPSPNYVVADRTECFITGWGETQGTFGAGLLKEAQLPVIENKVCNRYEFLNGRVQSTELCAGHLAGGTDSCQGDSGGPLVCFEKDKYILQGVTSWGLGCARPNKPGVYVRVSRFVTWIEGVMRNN

[15] = target: Vitamin K-dependent protein C (Homo sapiens, UniProt P04070); experiment: Binding affinity to human APC
Sequence of Vitamin K-dependent protein C (P04070 43-197 limits assumed): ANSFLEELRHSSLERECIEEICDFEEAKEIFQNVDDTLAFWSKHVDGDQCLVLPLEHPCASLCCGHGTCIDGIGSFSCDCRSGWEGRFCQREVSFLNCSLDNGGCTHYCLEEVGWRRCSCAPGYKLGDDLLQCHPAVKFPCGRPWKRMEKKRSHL
Sequence of Vitamin K-dependent protein C (P04070 212-461 limits assumed): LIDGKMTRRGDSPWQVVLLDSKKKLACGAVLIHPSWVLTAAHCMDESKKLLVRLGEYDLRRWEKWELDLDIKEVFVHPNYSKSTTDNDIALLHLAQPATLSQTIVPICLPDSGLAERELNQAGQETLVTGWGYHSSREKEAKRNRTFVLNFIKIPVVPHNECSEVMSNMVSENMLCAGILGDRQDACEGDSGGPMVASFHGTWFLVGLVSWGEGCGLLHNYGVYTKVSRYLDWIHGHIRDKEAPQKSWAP

[16] = Protein binding in plasma by equilibrium dialysis assay; assay type: ADME, cell-free; details: read-out: PPB (converted)
[17] = target: T1, Coagulation factor VII (Homo sapiens, UniProt P08709); experiment: Binding affinity to human f7a
T1 sequence (P08709 whole entry): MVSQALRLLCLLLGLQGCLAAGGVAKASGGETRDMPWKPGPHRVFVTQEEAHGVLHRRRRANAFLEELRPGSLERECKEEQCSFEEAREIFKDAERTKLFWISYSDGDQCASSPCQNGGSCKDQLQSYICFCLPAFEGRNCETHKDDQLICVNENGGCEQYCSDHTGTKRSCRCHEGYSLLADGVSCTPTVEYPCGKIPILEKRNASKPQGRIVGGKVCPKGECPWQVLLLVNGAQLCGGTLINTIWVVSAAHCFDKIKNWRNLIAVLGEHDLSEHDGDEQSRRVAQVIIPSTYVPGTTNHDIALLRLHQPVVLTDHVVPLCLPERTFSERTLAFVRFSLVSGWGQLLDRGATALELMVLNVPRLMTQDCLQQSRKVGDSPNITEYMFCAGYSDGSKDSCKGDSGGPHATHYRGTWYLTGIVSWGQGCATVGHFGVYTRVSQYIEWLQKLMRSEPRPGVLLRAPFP

[18] = target: Plasma kallikrein (Homo sapiens, UniProt P03952); experiment: Binding affinity to human plasma kallikrein; assay type: cell-free
Sequence of Plasma kallikrein (P03952 20-390 limits assumed): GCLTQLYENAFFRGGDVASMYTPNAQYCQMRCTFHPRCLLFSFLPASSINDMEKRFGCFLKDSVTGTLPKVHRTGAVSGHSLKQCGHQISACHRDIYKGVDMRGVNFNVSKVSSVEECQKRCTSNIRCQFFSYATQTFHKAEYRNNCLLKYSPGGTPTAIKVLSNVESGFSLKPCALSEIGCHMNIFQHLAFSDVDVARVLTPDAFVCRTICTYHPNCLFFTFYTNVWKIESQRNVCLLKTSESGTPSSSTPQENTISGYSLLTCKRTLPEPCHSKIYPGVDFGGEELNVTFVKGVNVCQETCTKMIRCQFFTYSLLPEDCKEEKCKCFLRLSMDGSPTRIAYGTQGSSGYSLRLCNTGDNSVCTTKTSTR
Sequence of Plasma kallikrein (P03952 391-638 limits assumed): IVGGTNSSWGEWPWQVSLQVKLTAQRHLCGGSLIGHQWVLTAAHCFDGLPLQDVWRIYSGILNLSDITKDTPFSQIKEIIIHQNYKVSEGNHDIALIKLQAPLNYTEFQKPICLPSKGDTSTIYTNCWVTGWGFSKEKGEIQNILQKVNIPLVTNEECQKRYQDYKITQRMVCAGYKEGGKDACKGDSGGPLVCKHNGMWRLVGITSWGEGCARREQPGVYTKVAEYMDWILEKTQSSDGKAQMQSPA

[19] = species on record: Oryctolagus cuniculus; experiment: cells

Row | Compound | 2PT [1] | bioavailability [4] | Ki [6] | Ki [8] | Vd [5] | half-life [7] | clearance [9] | further results
1 | Cc1nn(-c2ccc3onc(N)c3c2)c2c1CCN(c1ccc(-c3ccccc3CN3CC[C@@H](O)C3)cc1)C2=O | 2.8 µM | 44% | 0.27 nM | 130 nM | 0.75 L/kg | 1.7 h | 7 mL/min/kg | ID50 [2]: 0.6 ug/hr.kg; Papp [3]: 6.2 ×10⁻⁶ cm/s
2 | CN(C)Cc1ccccc1-c1ccc(N2CNc3c(C(F)(F)F)nn(-c4ccc5onc(N)c5c4)c3C2=O)cc1 | 1.4 µM |  | 0.25 nM |  |  |  |  | 
3 | Cc1nn(-c2ccc3onc(N)c3c2)c2c1CCN(c1ccc(-c3ccccc3CN3CCCC3)cc1)C2=O | 1.4 µM | 10% | 0.31 nM | 120 nM | 3.3 L/kg | 1.7 h | 31.7 mL/min/kg | 
4 | Nc1noc2ccc(-n3nc(C(F)(F)F)c4c3C(=O)N(c3ccc(-c5ccccc5CN5CC[C@@H](O)C5)cc3)CC4)cc12 | 3.6 µM | 82% |  | 35 nM |  |  |  | Ki [10]: > 2800 nM; Ki [11]: > 2800 nM; Ki [12]: > 2800 nM; Papp [3]: 1.7 ×10⁻⁶ cm/s; Ki [13]: > 2800 nM; Ki [14]: > 2800 nM; Ki [15]: > 2800 nM; fraction unbound [16]: 0.026; Ki [17]: > 2800 nM; Ki [18]: > 2800 nM
5 | CN(C)Cc1ccccc1-c1ccc(N2CC=Cc3c(C(F)(F)F)nn(-c4ccc5onc(N)c5c4)c3C2=O)cc1 | 6.9 µM |  | 0.6 nM |  |  |  |  | 
6 | CN(C)Cc1ccccc1-c1ccc(N2CCCc3c(C(F)(F)F)nn(-c4ccc5onc(N)c5c4)c3C2=O)cc1 | 4 µM |  | 0.81 nM |  |  |  |  | 
7 | Nc1noc2ccc(-n3nc(C(F)(F)F)c4c3C(=O)N(c3ccc(-c5ccccc5CN5CCC(O)CC5)cc3)CC4)cc12 | 4.9 µM | 102% | 0.22 nM | 71 nM | 1.4 L/kg | 6.4 h | 3.5 mL/min/kg | Papp [3]: 0.4 ×10⁻⁶ cm/s; IC50 [19]: 510 nM
8 | Nc1noc2ccc(-n3nc(C(F)(F)F)c4c3C(=O)N(c3ccc(-c5ccccc5CN5CCCC5)cc3F)CC4)cc12 | 6.1 µM | 85% | 0.24 nM |  | 4.8 L/kg | 4.9 h | 13.2 mL/min/kg | IC50 [19]: 1000 nM; fraction unbound [16]: < 0.02
9 | CN(C)Cc1ccccc1-c1ccc(N2CCc3c(C(F)(F)F)nn(-c4ccc5onc(N)c5c4)c3C2=O)cc1 | 2.7 µM | 50% | 0.04 nM | 43 nM | 4.5 L/kg | 3.8 h | 16.3 mL/min/kg | Papp [3]: 4.7 ×10⁻⁶ cm/s; IC50 [19]: 223 nM
10 | CCN(C)Cc1ccccc1-c1ccc(N2CCc3c(C(F)(F)F)nn(-c4ccc5onc(N)c5c4)c3C2=O)cc1 | 3.2 µM |  | < 0.1 nM | 57 nM |  |  |  | 
11 | Nc1noc2ccc(-n3nc(C(F)(F)F)c4c3C(=O)N(c3ccc(-c5ccccc5CN5CCNCC5)cc3)CC4)cc12 | 14 µM |  | 0.64 nM | 280 nM |  |  |  | 
12 | Nc1noc2ccc(-n3nc(C(F)(F)F)c4c3C(=O)N(c3ccc(-c5ccccc5CN5CC[C@@H](O)C5)cc3F)CC4)cc12 | 8.4 µM | 81% | 0.16 nM | 72 nM | 2.8 L/kg | 5.9 h | 5.83 mL/min/kg | Papp [3]: 13 ×10⁻⁶ cm/s; IC50 [19]: 600 nM; fraction unbound [16]: < 0.02
13 | CN(C)Cc1ccccc1-c1ccc(N2CCc3c(C(F)(F)F)nn(-c4ccc5onc(N)c5c4)c3C2=O)c(F)c1 | 5.6 µM | 83% | 0.13 nM | 75 nM | 8.8 L/kg | 6.4 h | 17.5 mL/min/kg | Papp [3]: 8.9 ×10⁻⁶ cm/s; IC50 [19]: 600 nM; fraction unbound [16]: < 0.02

More lines, main results first:

Row | 2PT [1] | bioavailability [4] | Ki [6] | Ki [8] | Compound | Vd [5] | half-life [7] | clearance [9] | further results
14 | 41 µM |  | 0.35 nM | 130 nM | Nc1noc2ccc(-n3nc(C(F)(F)F)c4c3C(=O)N(c3ccc(-c5ccccc5CN5CCOCC5)cc3)CC4)cc12 |  |  |  | 
15 | 4.8 µM | 52% |  | 59 nM | Nc1noc2ccc(-n3nc(C(F)(F)F)c4c3C(=O)N(c3ccc(-c5ccccc5CN5CC[C@H](O)C5)cc3)CC4)cc12 | 1.12 L/kg | 4.5 h | 4.5 mL/min/kg | 
16 | 3.2 µM | 37% | 0.15 nM | 58 nM | Nc1noc2ccc(-n3nc(C(F)(F)F)c4c3C(=O)N(c3ccc(-c5ccccc5CN5CCCC5)cc3)CC4)cc12 | 5 L/kg | 5.3 h | 16.8 mL/min/kg | 
17 | 15 µM |  | 0.6 nM |  | CN(C)Cc1ccccc1-c1ccc(N2CC=Cc3c(C(F)(F)F)nn(-c4ccc5onc(N)c5c4)c3C2=O)c(F)c1 |  |  |  | 
18 | 4.2 µM |  |  |  | CN(C)Cc1ccccc1-c1ccc(NC(=O)c2cc(C(F)(F)F)nn2-c2ccc3onc(N)c3c2)c(F)c1 |  |  |  | 
19 | 8.5 µM |  | 0.85 nM |  | CN(C)Cc1ccccc1-c1ccc(N2CCCc3c(C(F)(F)F)nn(-c4ccc5onc(N)c5c4)c3C2=O)c(F)c1 |  |  |  | 
20 | 4.9 µM | 62% | 0.34 nM | 250 nM | Cc1nn(-c2ccc3onc(N)c3c2)c2c1CCN(c1ccc(-c3ccccc3CN3CC[C@@H](O)C3)cc1F)C2=O | 1.1 L/kg | 1.1 h | 15.7 mL/min/kg | 
21 | 2.1 µM | 13% | 0.55 nM | 380 nM | Cc1nn(-c2ccc3onc(N)c3c2)c2c1CCN(c1ccc(-c3ccccc3CN(C)C)cc1)C2=O | 6.4 L/kg | 1.6 h | 53.3 mL/min/kg | Papp [3]: 6.8 ×10⁻⁶ cm/s
22 | 3.7 µM | 67% | 0.34 nM | 150 nM | CNCc1ccccc1-c1ccc(N2CCc3c(C(F)(F)F)nn(-c4ccc5onc(N)c5c4)c3C2=O)cc1 | 9.7 L/kg | 7.4 h | 27.7 mL/min/kg | 
23 | 31 µM |  | 0.71 nM | 230 nM | CN1CCN(Cc2ccccc2-c2ccc(N3CCc4c(C(F)(F)F)nn(-c5ccc6onc(N)c6c5)c4C3=O)cc2)CC1 |  |  |  | 
24 | 2.1 µM |  |  |  | CN(C)Cc1nccn1-c1ccc(NC(=O)c2cc(C(F)(F)F)nn2-c2ccc3onc(N)c3c2)c(F)c1 [RAZAXABAN] |  |  |  | Ki [15]: > 2300 nM
25 | 3 µM |  | 0.11 nM | 97 nM | CCN(CC)Cc1ccccc1-c1ccc(N2CCc3c(C(F)(F)F)nn(-c4ccc5onc(N)c5c4)c3C2=O)cc1 |  |  |  | 
